Assay results published in patent US20230146455A1, “TREATMENT OF INFLAMMATORY DISEASES WITH PEPTIDES AND PHARMACEUTICAL COMPOSITIONS” (Yuyu Pharma, Inc., priority 2020, published 2023).
Several values for one entry are separate records, joined by “and”; a condition that tells them apart may be missing. Equal values may be shown once. Where a SMILES comes first, the peptide text is derived from it. [ ]: non-standard residue; d: D form. Hyp = O=C(O)[C@@H]1C[C@@H](O)CN1

Legend:
VEGF-A = experiment: Example 9 Luminex, LPS hPBMCs: VEGF-A; type: cell-based, human; conditions: for conc/live cell / Concentration: Bead VEGF-A; for Concentration: dilution 2.0
Method: (§1) Treatment Human PBMCs were pretreated with YY-101, YDE-011 and YDE-043 or reference compound; Xiidra® at various concentration (ranging from 1 nM to 100 uM) for 2 h before stimulation. An equal volume of 0.5% DMSO was used as a vehicle control. Then, the cells were treated with LPS at 5 ug/ml. The supernatants from treated cells were harvested at 24 h and placed in a 96 well for Luminex cytokine & chemokine profiling using a Luminex 200 multiplex assay (Luminex; R&D system, USA).
(§2) The main study arm with triplicate wells per group in a 24-well plate: • 1. Blank • 2. PBMC: 0.5% DMSO • 3. PBMC+LPS (5 ug/ml) • 4. PBMC+YY-101 100 uM • 5. PBMC+YY-101 10 uM • 6. PBMC+YY-101 1 uM • 7. PBMC+YY-101 0.1 uM • 8. PBMC+YY-101 0.01 uM • 9. PBMC+LPS (5 ug/ml)+Xiidra®100 uM • 10. PBMC+LPS (5 ug/ml)+Xiidra® 10 uM • 11. PBMC+LPS (5 ug/ml)+Xiidra® 1 uM • 12. PBMC+LPS (5 ug/ml)+Xiidra®0.1 uM • 13. PBMC+LPS (5 ug/ml)+Xiidra®0.01 uM • 14. PBMC+LPS (5 ug/ml)+Xiidra®0.001 uM • 15. PBMC+LPS (5 ug/ml)+YY-101 100 uM • 16. PBMC+LPS (5 ug/ml)+YY-101 10 uM • 17. PBMC+LPS (5 ug/ml)+YY-101 1 uM • 18. PBMC+LPS (5 ug/ml)+YY-101 0.1 uM • 19. PBMC+LPS (5 ug/ml)+YY-101 0.01 uM • 20. PBMC+LPS (5 ug/ml)+YY-101 0.001 uM • 21. PBMC+LPS (5 ug/ml)+YDE-011 100 uM • 22. PBMC+LPS (5 ug/ml)+YDE-011 10 uM • 23. PBMC+LPS (5 ug/ml)+YDE-011 1 uM • 24. PBMC+LPS (5 ug/ml)+YDE-011 0.1 uM • 25. PBMC+LPS (5 ug/ml)+YDE-011 0.01 uM • 26. PBMC+LPS (5 ug/ml)+YDE-011 0.001 uM • 27. PBMC+LPS (5 ug/ml)+YDE-043 100 uM • 28. PBMC+LPS (5 ug/ml)+YDE-043 10 uM • 29. PBMC+LPS (5 ug/ml)+YDE-043 1 uM • 30. PBMC+LPS (5 ug/ml)+YDE-043 0.1 uM • 31. PBMC+LPS (5 ug/ml)+YDE-043 0.01 uM • 32. PBMC+LPS (5 ug/ml)+YDE-043 0.001 uM
(§3) Multiplex assay was used to measure 30 cytokines and chemokines. The 1:2, 1:10 and 1:200 diluted cell supernatant and serial dilution of the standard were dispensed into a 96 well plate at 50 ul/well. Then, the pre-mixed cocktail of antibody-coated magnetic beads was dispensed at 50 ul/well and incubated at room temperature for 2 h in a horizontal orbital microplate shaker at 800±500 rpm. The beads were washed using a magnetic device to prevent loss. The biotin-antibody was dispensed in 50 ul of each well and incubated at room temperature for 1 h in a shaker at 800±500 rpm. After washing, streptavidin-PE was added at 50 ul/well and incubated at room temperature for 30 min in a shaker under the same conditions. Finally, after washing, wash buffer (100 ul/well) was added to the plate and incubated in a shaker for 2 min. The Luminex™ 200 setting were set according to the manufacturer's protocol. The data was calculated with a standard five-parameter logistic nonlinear regression analysis of the data (xPonent software 4.2, USA). The levels of cytokine/chemokine are normalized to the live cell counts (1×10^5 cells/mL) and presented as concentrations per mL (pg/mL or ng/mL).

IL-10 = experiment: Example 9 Luminex, LPS hPBMCs: IL-10; type: cell-based, human; conditions: IL-10
Method: as §1, §2, §3

[1] = PBMC + LPS(5 ug/ml) + test article 1 uM, Mean
[2] = PBMC + LPS(5 ug/ml) + test article 1 uM, single replicates
[3] = PBMC + LPS(5 ug/ml) + test article 10 uM, Mean
[4] = PBMC + LPS(5 ug/ml) + test article 10 uM, single replicates
[5] = PBMC + LPS(5 ug/ml) + test article 100 uM, Mean
[6] = PBMC + LPS(5 ug/ml) + test article 100 uM, single replicates
[7] = PBMC + LPS(5 ug/ml) + test article 0.001 uM, Mean
[8] = PBMC + LPS(5 ug/ml) + test article 0.001 uM, single replicates
[9] = PBMC + LPS(5 ug/ml) + test article 0.01 uM, Mean
[10] = PBMC + LPS(5 ug/ml) + test article 0.01 uM, single replicates
[11] = PBMC + LPS(5 ug/ml) + test article 0.1 uM, Mean
[12] = PBMC + LPS(5 ug/ml) + test article 0.1 uM, single replicates

CC(C)C[C@H](NC(=O)CNC(=O)[C@H](CC(C)C)NC(=O)[C@H](CCC(N)=O)NC(=O)CNC(=O)[C@@H]1C[C@@H](O)CN1)C(=O)N[C@@H](C)C(=O)NCC(=O)N1CCC[C@H]1C(=O)N[C@@H](CCCCN)C(=O)O [YDE-011] (H-[Hyp]GQLGLAGPK-OH)
conc/live cell (VEGF-A; [1]): 0.3 pg/10^5 | Concentration (VEGF-A; [1]): 2.8 pg/mL | Concentration (VEGF-A; [2]): 0.6 pg/mL | conc/live cell (VEGF-A; [2]): 0.0 pg/10^5 and 0.1 pg/10^5 | conc/live cell (VEGF-A; [3]): 0.3 pg/10^5 | Concentration (VEGF-A; [3]): 2.1 pg/mL | Concentration (VEGF-A; [4]): 3.6 pg/mL and 0.6 pg/mL | conc/live cell (VEGF-A; [4]): 0.7 pg/10^5 and 0.0 pg/10^5 and 0.1 pg/10^5 | conc/live cell (VEGF-A; [5]): 0.0 pg/10^5 | conc/live cell (VEGF-A; [6]): 0.0 pg/10^5 | Concentration, Bead name: VEGF-A (VEGF-A; [7]): 4.3 pg/mL | MFI, Bead name: VEGF-A (VEGF-A; [7]): −0.4 | conc/live cell, Bead name: VEGF-A (VEGF-A; [7]): 0.8 pg/10^5 | Concentration, Bead name: VEGF-A (VEGF-A; [8]): 6.1 pg/ml (2×) and 0.6 pg/ml | MFI, Bead name: VEGF-A (VEGF-A; [8]): 0.3 (2×) and −1.8 | conc/live cell, Bead name: VEGF-A (VEGF-A; [8]): 1.4 pg/10^5 and 0.1 pg/10^5 and 1.1 pg/10^5 | Concentration, Bead name: VEGF-A (VEGF-A; [9]): 2.8 pg/mL | MFI, Bead name: VEGF-A (VEGF-A; [9]): −1.6 | conc/live cell, Bead name: VEGF-A (VEGF-A; [9]): 0.3 pg/10^5 | Concentration, Bead name: VEGF-A (VEGF-A; [10]): 4.9 pg/mL and 0.6 pg/mL | MFI, Bead name: VEGF-A (VEGF-A; [10]): −0.3 and −2.8 and −1.8 | conc/live cell, Bead name: VEGF-A (VEGF-A; [10]): 0.8 pg/10^5 and 0.0 pg/10^5 and 0.1 pg/10^5 | Concentration, Bead name: VEGF-A (VEGF-A; [11]): 0.6 pg/mL | MFI, Bead name: VEGF-A (VEGF-A; [11]): −2.1 | conc/live cell, Bead name: VEGF-A (VEGF-A; [11]): 0.1 pg/10^5 | Concentration, Bead name: VEGF-A (VEGF-A; [12]): 0.6 pg/mL | MFI, Bead name: VEGF-A (VEGF-A; [12]): −1.8 (2×) and −2.8 | conc/live cell, Bead name: VEGF-A (VEGF-A; [12]): 0.1 pg/10^5 (2×) and 0.0 pg/10^5 | Concentration, Bead name: VEGF-A (VEGF-A; [2]): 4.9 pg/mL | MFI, Bead name: VEGF-A (VEGF-A; [2]): −0.3 | conc/live cell, Bead name: VEGF-A (VEGF-A; [2]): 0.9 pg/10^5 | Concentration (IL-10; [7]): 303.8 pg/mL | conc/live cell (pg/10^5) (IL-10; [7]): 57.2 pg/10^5 | Concentration (IL-10; [8]): 291.0 pg/mL and 314.2 pg/mL and 306.3 pg/mL | conc/live cell (pg/10^5) (IL-10; [8]): 64.7 pg/10^5 and 54.2 pg/10^5 and 52.8 pg/10^5 | Concentration (IL-10; [9]): 318.0 pg/mL | conc/live cell (pg/10^5) (IL-10; [9]): 54.4 pg/10^5 | Concentration (IL-10; [10]): 333.6 pg/mL and 325.0 pg/mL and 295.4 pg/mL | conc/live cell (pg/10^5) (IL-10; [10]): 52.9 pg/10^5 and 52.4 pg/10^5 and 57.9 pg/10^5 | Concentration (IL-10; [11]): 308.9 pg/mL | conc/live cell (pg/10^5) (IL-10; [11]): 54.4 pg/10^5 | Concentration (IL-10; [12]): 299.0 pg/mL and 317.8 pg/mL and 309.9 pg/mL | conc/live cell (pg/10^5) (IL-10; [12]): 45.3 pg/10^5 and 63.6 pg/10^5 and 54.4 pg/10^5 | Concentration (IL-10; [1]): 314.7 pg/mL | conc/live cell (pg/10^5) (IL-10; [1]): 62.8 pg/10^5 | Concentration (IL-10; [2]): 314.2 pg/mL and 319.3 pg/mL and 310.6 pg/mL | conc/live cell (pg/10^5) (IL-10; [2]): 57.1 pg/10^5 and 66.5 pg/10^5 and 64.7 pg/10^5 | Concentration (IL-10; [3]): 300.7 pg/mL | conc/live cell (pg/10^5) (IL-10; [3]): 57.3 pg/10^5 | Concentration (IL-10; [4]): 299.0 pg/mL and 295.4 pg/mL and 307.7 pg/mL | conc/live cell (pg/10^5) (IL-10; [4]): 55.4 pg/10^5 and 50.9 pg/10^5 and 65.5 pg/10^5 | Concentration (IL-10; [5]): 111.4 pg/mL | conc/live cell (pg/10^5) (IL-10; [5]): 18.4 pg/10^5 | Concentration (IL-10; [6]): 99.4 pg/mL and 113.9 pg/mL and 121.1 pg/mL | conc/live cell (pg/10^5) (IL-10; [6]): 16.3 pg/10^5 and 18.7 pg/10^5 and 20.2 pg/10^5
